# ChEMBL document CHEMBL1201862, “PubChem BioAssay data set” (2004)
#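 Protocol summary: plate cells (96-well), add compound at 5 concentrations, incubate 48 h, interpolate endpoints linearly. GI50 marks 50% less growth.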 Calls of active or inactive are those of the source. Rule as the data show it: active = GI50 up to about 1.1 µM and inactive = higher.
# Columns and labels:
# Assay in all cases: NCI tumour cell line growth inhibition, 48 h
# [1] = test system: EKVX
# [2] = test system: SR
# [3] = test system: HT-29
# [4] = test system: HCC 2998
# [5] = test system: XF498
# [6] = test system: SK-OV-3
# [7] = test system: IGROV-1
# [8] = test system: A498
# [9] = test system: UACC-62
# [10] = test system: MOLT-4
# [11] = test system: CCRF-CEM
# [12] = test system: HOP-62
# [13] = test system: SNB-78
# [14] = test system: M19-MEL
# [15] = test system: LXFL 529
# [16] = test system: HOP-92
# [17] = test system: NCI-H460
# [18] = test system: SNB-75
# [19] = test system: SW-620
# [20] = test system: K562
# [21] = test system: 786-0
# [22] = test system: OVCAR-3
# [23] = test system: SF-268
# [24] = test system: COLO 205
# [25] = test system: NCI-H226
# [26] = test system: SK-MEL-28
# [27] = test system: KM12
# [28] = test system: A549
# [29] = test system: NCI-H23
# [30] = test system: U-251
# [31] = test system: M14
# [32] = test system: SK-MEL-2
# [33] = test system: OVCAR-5
# [34] = test system: DMS-114
# [35] = test system: HCT-116
# [36] = test system: TK-10
# [37] = test system: SN12C
# [38] = test system: ACHN
# [39] = test system: SK-MEL-5
# [40] = test system: SF-295
# [41] = test system: DLD-1
# [42] = test system: UO-31
# [43] = test system: Malme-3M
# [44] = test system: NCI-H522
# [45] = test system: CAKI-1
# [46] = test system: UACC-257
# [47] = test system: KM-20L2
# [48] = test system: OVCAR-8
# [49] = test system: OVCAR-4
# [50] = test system: SNB-19
# [51] = test system: HL-60
# [52] = test system: RPMI-8226
# [53] = test system: SF-539
# [54] = test system: DMS-273
# [55] = test system: HCT-15
# [56] = test system: RXF 393
# [57] = test system: LOX IMVI
# [58] = test system: HOP-18
smiles,measurement,setting,value
Cc1cccc2c1N(C(=O)/C=C\C(=O)O)C(c1c(C)[nH]c3ccccc13)C2 (centres undefined),GI50,[1],> 100 µM (inactive)
same,GI50,[2],31 µM (inactive)
same,GI50,[3],> 100 µM (inactive)
same,GI50,[4],18.5 µM (inactive)
same,GI50,[5],21.9 µM (inactive)
same,GI50,[6],30.8 µM (inactive)
same,GI50,[7],> 10 µM (inactive)
same,GI50,[8],> 100 µM (inactive)
same,GI50,[9],18.9 µM (inactive)
same,GI50,[10],31.2 µM (inactive)
same,GI50,[11],34.8 µM (inactive)
same,GI50,[12],> 100 µM (inactive)
same,GI50,[13],31.2 µM (inactive)
same,GI50,[14],22.7 µM (inactive)
same,GI50,[15],15.3 µM (inactive)
same,GI50,[16],22.5 µM (inactive)
same,GI50,[17],> 100 µM (inactive)
same,GI50,[18],> 10 µM (inactive)
same,GI50,[19],28.4 µM (inactive)
same,GI50,[20],36.6 µM (inactive)
same,GI50,[21],40.8 µM (inactive)
same,GI50,[22],> 10 µM (inactive)
same,GI50,[23],> 10 µM (inactive)
same,GI50,[24],> 10 µM (inactive)
same,GI50,[25],49.3 µM (inactive)
same,GI50,[26],21.9 µM (inactive)
same,GI50,[27],33.5 µM (inactive)
same,GI50,[28],> 100 µM (inactive)
same,GI50,[29],43.8 µM (inactive)
same,GI50,[30],> 10 µM (inactive)
same,GI50,[31],55.1 µM (inactive)
same,GI50,[32],19.9 µM (inactive)
same,GI50,[33],> 100 µM (inactive)
same,GI50,[34],19.9 µM (inactive)
same,GI50,[35],23.2 µM (inactive)
same,GI50,[36],73.5 µM (inactive)
same,GI50,[37],40.7 µM (inactive)
same,GI50,[38],84.3 µM (inactive)
same,GI50,[39],18.2 µM (inactive)
same,GI50,[40],44.8 µM (inactive)
same,GI50,[41],33.6 µM (inactive)
same,GI50,[42],> 100 µM (inactive)
same,GI50,[43],20.1 µM (inactive)
same,GI50,[44],18.5 µM (inactive)
same,GI50,[45],30.3 µM (inactive)
same,GI50,[46],33.8 µM (inactive)
same,GI50,[47],> 100 µM (inactive)
same,GI50,[48],55.6 µM (inactive)
same,GI50,[49],57.7 µM (inactive)
same,GI50,[50],36.2 µM (inactive)
same,GI50,[51],20.7 µM (inactive)
same,GI50,[52],28.4 µM (inactive)
O=C(Nc1cccc([N+](=O)[O-])c1)C(=O)C(C(=O)c1ccccc1F)C1OC(=O)C2C=CC=CC21 (centres undefined),GI50,[1],41 µM (inactive)
same,GI50,[2],7.06 µM (inactive)
same,GI50,[53],24 µM (inactive)
same,GI50,[3],41.6 µM (inactive)
same,GI50,[4],36.1 µM (inactive)
same,GI50,[5],40.3 µM (inactive)
same,GI50,[54],31.7 µM (inactive)
same,GI50,[6],41.3 µM (inactive)
same,GI50,[7],53.8 µM (inactive)
same,GI50,[8],96.6 µM (inactive)
same,GI50,[9],28 µM (inactive)
same,GI50,[55],27.5 µM
same,GI50,[10],32 µM (inactive)
same,GI50,[11],27.3 µM (inactive)
same,GI50,[12],50.9 µM (inactive)
same,GI50,[13],36.6 µM (inactive)
same,GI50,[14],31.6 µM (inactive)
same,GI50,[15],30.5 µM (inactive)
same,GI50,[16],> 100 µM (inactive)
same,GI50,[56],18.5 µM (inactive)
same,GI50,[17],40.9 µM (inactive)
same,GI50,[18],28.7 µM (inactive)
same,GI50,[19],52.1 µM (inactive)
same,GI50,[20],31.8 µM (inactive)
same,GI50,[23],19.7 µM (inactive)
same,GI50,[24],35.2 µM (inactive)
same,GI50,[25],13.4 µM (inactive)
same,GI50,[26],30.3 µM (inactive)
same,GI50,[27],27.3 µM (inactive)
same,GI50,[28],37.5 µM (inactive)
same,GI50,[29],25.1 µM (inactive)
same,GI50,[30],22.3 µM (inactive)
same,GI50,[31],38 µM (inactive)
same,GI50,[32],30.3 µM (inactive)
same,GI50,[33],81.7 µM (inactive)
same,GI50,[35],19.4 µM (inactive)
same,GI50,[36],> 100 µM (inactive)
same,GI50,[37],30.1 µM (inactive)
same,GI50,[38],49.4 µM (inactive)
same,GI50,[39],73.1 µM (inactive)
same,GI50,[40],43.9 µM (inactive)
same,GI50,[41],43.4 µM (inactive)
same,GI50,[42],44.1 µM (inactive)
same,GI50,[44],18.9 µM (inactive)
same,GI50,[45],59.2 µM (inactive)
same,GI50,[46],82 µM (inactive)
same,GI50,[47],41.2 µM (inactive)
same,GI50,[48],30.3 µM (inactive)
same,GI50,[49],47.2 µM (inactive)
same,GI50,[50],29.9 µM (inactive)
same,GI50,[51],20 µM (inactive)
same,GI50,[52],23.8 µM (inactive)
same,GI50,[57],21.1 µM (inactive)
O=C1OC(c2ccccc2)=N/C1=C\c1ccc2ccccc2c1,GI50,[1],> 100 µM (inactive)
same,GI50,[53],> 100 µM (inactive)
same,GI50,[3],> 100 µM (inactive)
same,GI50,[5],> 100 µM (inactive)
same,GI50,[6],> 100 µM (inactive)
same,GI50,[7],> 100 µM (inactive)
same,GI50,[8],> 100 µM (inactive)
same,GI50,[9],> 100 µM (inactive)
same,GI50,[55],> 100 µM
same,GI50,[10],> 100 µM (inactive)
same,GI50,[11],> 100 µM (inactive)
same,GI50,[13],> 100 µM (inactive)
same,GI50,[14],> 100 µM (inactive)
same,GI50,[16],> 100 µM (inactive)
same,GI50,[56],> 100 µM (inactive)
same,GI50,[17],> 100 µM (inactive)
same,GI50,[18],> 100 µM (inactive)
same,GI50,[19],> 100 µM (inactive)
same,GI50,[20],> 100 µM (inactive)
same,GI50,[21],> 100 µM (inactive)
same,GI50,[22],> 100 µM (inactive)
same,GI50,[23],> 100 µM (inactive)
same,GI50,[24],> 100 µM (inactive)
same,GI50,[26],> 100 µM (inactive)
same,GI50,[27],> 100 µM (inactive)
same,GI50,[28],> 100 µM (inactive)
same,GI50,[29],> 100 µM (inactive)
same,GI50,[58],> 100 µM (inactive)
same,GI50,[30],> 100 µM (inactive)
same,GI50,[31],> 100 µM (inactive)
same,GI50,[32],> 100 µM (inactive)
same,GI50,[33],> 100 µM (inactive)
same,GI50,[34],> 100 µM (inactive)
same,GI50,[35],> 100 µM (inactive)
same,GI50,[36],> 100 µM (inactive)
same,GI50,[37],> 100 µM (inactive)
same,GI50,[38],> 100 µM (inactive)
same,GI50,[39],> 100 µM (inactive)
same,GI50,[41],> 100 µM (inactive)
same,GI50,[42],> 100 µM (inactive)
same,GI50,[43],> 100 µM (inactive)
same,GI50,[44],> 100 µM (inactive)
same,GI50,[45],> 100 µM (inactive)
same,GI50,[46],> 100 µM (inactive)
same,GI50,[47],> 100 µM (inactive)
same,GI50,[48],> 100 µM (inactive)
same,GI50,[49],> 100 µM (inactive)
same,GI50,[50],> 100 µM (inactive)
same,GI50,[52],> 100 µM (inactive)
same,GI50,[57],> 100 µM (inactive)
CC1(C)OC2C(O1)[C@H]1OC(C(Cl)(Cl)Cl)=N[C@H]1C(I)[C@H]2N1C(=O)c2ccccc2C1=O (some centres undefined),GI50,[1],79.3 µM (inactive)
same,GI50,[2],23.1 µM (inactive)
same,GI50,[53],> 100 µM (inactive)
same,GI50,[3],59.4 µM (inactive)
same,GI50,[54],52.1 µM (inactive)
same,GI50,[7],25.5 µM (inactive)
same,GI50,[8],> 100 µM (inactive)
same,GI50,[9],54.5 µM (inactive)
same,GI50,[55],55.1 µM
same,GI50,[10],26.1 µM (inactive)
same,GI50,[11],41.4 µM (inactive)
same,GI50,[12],> 100 µM (inactive)
same,GI50,[13],73.3 µM (inactive)
same,GI50,[14],69.8 µM (inactive)
same,GI50,[15],50.2 µM (inactive)
same,GI50,[16],40.6 µM (inactive)
same,GI50,[56],28.9 µM (inactive)
same,GI50,[17],54.6 µM (inactive)
same,GI50,[18],56.9 µM (inactive)
same,GI50,[19],> 100 µM (inactive)
same,GI50,[20],36.7 µM (inactive)
same,GI50,[21],> 100 µM (inactive)
same,GI50,[23],71.6 µM (inactive)
same,GI50,[24],33.6 µM (inactive)
same,GI50,[25],> 100 µM (inactive)
same,GI50,[26],92.3 µM (inactive)
same,GI50,[27],49.7 µM (inactive)
same,GI50,[28],32.6 µM (inactive)
same,GI50,[29],58.2 µM (inactive)
same,GI50,[58],> 100 µM (inactive)
same,GI50,[30],84.9 µM (inactive)
same,GI50,[31],69.3 µM (inactive)
same,GI50,[33],> 100 µM (inactive)
same,GI50,[34],30.6 µM (inactive)
same,GI50,[35],47.1 µM (inactive)
same,GI50,[37],74.8 µM (inactive)
same,GI50,[38],65.6 µM (inactive)
same,GI50,[39],48.9 µM (inactive)
same,GI50,[40],56.4 µM (inactive)
same,GI50,[41],> 100 µM (inactive)
same,GI50,[44],24.5 µM (inactive)
same,GI50,[46],36.1 µM (inactive)
same,GI50,[47],60.4 µM (inactive)
same,GI50,[48],> 100 µM (inactive)
same,GI50,[49],24.1 µM (inactive)
same,GI50,[50],> 100 µM (inactive)
same,GI50,[51],17.9 µM (inactive)
same,GI50,[52],32.7 µM (inactive)
same,GI50,[57],51.2 µM (inactive)
